{"source": "ChEMBL document CHEMBL5649166", "about": "“RIP3 induces apoptosis independent of pronecrotic kinase activity” (Mol Cell, 2014)", "key": {"[1]": {"molecular_target": "Serine/threonine-protein kinase tousled-like 2 (Homo sapiens) (UniProt Q86UE8)", "sequence (Q86UE8 whole entry, looked up)": "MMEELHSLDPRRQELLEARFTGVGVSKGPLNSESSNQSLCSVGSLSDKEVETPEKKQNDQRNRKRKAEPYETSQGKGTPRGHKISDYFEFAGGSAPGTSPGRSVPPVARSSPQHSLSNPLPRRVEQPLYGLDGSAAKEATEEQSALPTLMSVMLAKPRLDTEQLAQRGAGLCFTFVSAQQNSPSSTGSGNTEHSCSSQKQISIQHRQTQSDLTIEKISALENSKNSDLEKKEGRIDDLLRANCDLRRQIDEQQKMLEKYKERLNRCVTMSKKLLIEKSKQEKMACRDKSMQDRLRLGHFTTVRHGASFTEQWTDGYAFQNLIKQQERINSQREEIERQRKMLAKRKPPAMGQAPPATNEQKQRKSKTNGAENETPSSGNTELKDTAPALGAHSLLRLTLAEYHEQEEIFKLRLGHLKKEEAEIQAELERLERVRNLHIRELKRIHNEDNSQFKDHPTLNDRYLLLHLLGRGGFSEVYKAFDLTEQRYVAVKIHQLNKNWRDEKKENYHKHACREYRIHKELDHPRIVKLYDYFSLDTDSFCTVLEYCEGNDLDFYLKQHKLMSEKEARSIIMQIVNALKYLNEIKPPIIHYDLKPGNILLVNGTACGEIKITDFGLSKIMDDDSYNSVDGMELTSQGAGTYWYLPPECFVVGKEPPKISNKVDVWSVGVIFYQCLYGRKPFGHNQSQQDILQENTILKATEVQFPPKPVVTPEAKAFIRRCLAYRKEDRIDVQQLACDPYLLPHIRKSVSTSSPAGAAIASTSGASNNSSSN", "test": "Inhibition of human TLK2 using casein as substrate at 1 uM in presence of 32P-ATP by Hotspot assay relative to control; values are per cent of control"}, "[2]": {"tested_on": "3T3SA", "test": "Induction of apoptosis in mouse 3T3SA cells incubated for 18 hrs in presence of zLEHD by Cell Titer-Glo luminescent cell viability assay", "type": "toxicity, cell-based"}, "[3]": {"tested_on": "3T3SA", "test": "Induction of apoptosis in mouse 3T3SA cells incubated for 18 hrs in presence of zYVAD by Cell Titer-Glo luminescent cell viability assay", "type": "toxicity, cell-based"}, "[4]": {"tested_on": "3T3SA", "test": "Induction of apoptosis in mouse 3T3SA cells incubated for 18 hrs in presence of zIETD by Cell Titer-Glo luminescent cell viability assay", "type": "toxicity, cell-based"}, "[5]": {"tested_on": "SVEC4-10", "test": "Inhibition of DAI-induced necroptosis in wildtype MCMV infected mouse SVEC4-10 cells assessed as increase in cell viability at 10 uM incubated for 18 hrs by Cell Titer-Glo luminescent cell viability assay", "type": "functional, cell-based"}, "[6]": {"tested_on": "MEF", "test": "Induction of apoptosis in RIP3-/- MEF cells expressing dox-induced RIP3 K51A mutant assessed as RIP1-FADD association incubated for 1 hrs by immunoblot analysis", "type": "toxicity, cell-based", "conditions": "mouse"}, "[7]": {"tested_on": "SVEC4-10", "test": "Induction of apoptosis in mouse SVEC4-10 cells transfected with MCMV M45-encoded vIRA incubated for 18 hrs by Cell Titer-Glo luminescent cell viability assay", "type": "toxicity, cell-based", "conditions": "svec4-10, 18 h"}, "[8]": {"tested_on": "3T3SA", "test": "Induction of apoptosis in mouse 3T3SA cells transfected with Caspase8 siRNA assessed as cleaved caspase 8 accumulation incubated for 2.5 hrs by immunoblot analysis", "type": "toxicity, cell-based"}, "[9]": {"tested_on": "3T3SA", "test": "Induction of apoptosis in mouse 3T3SA cells transfected with RIP3 shRNA assessed as increase in caspase3/7 proteolytic activity incubated for 4 hrs", "type": "toxicity, cell-based"}, "[10]": {"tested_on": "L929", "test": "Inhibition of TLR-3 induced necroptosis in mouse L929 cells assessed as increase in cell viability upto 10 uM incubated for 18 hrs in presence of poly(I:C) and zVAD by Cell Titer-Glo luminescent cell viability assay", "type": "functional, cell-based"}, "[11]": {"tested_on": "3T3SA", "test": "Induction of apoptosis in mouse 3T3SA cells assessed as increase in caspase3/7 proteolytic activity incubated for 2.5 hrs", "type": "toxicity, cell-based"}, "[12]": {"tested_on": "MEF", "test": "Induction of apoptosis in RIP3-/- MEF cells expressing dox-induced RIP3 K51A mutant assessed as RIP1-RIP3 association incubated for 1 hrs by immunoblot analysis", "type": "toxicity, cell-based", "conditions": "mouse"}, "[13]": {"tested_on": "3T3SA", "test": "Induction of apoptosis in mouse 3T3SA cells assessed as accumulation of cleaved caspase-3 by measuring percentage of cleaved caspase-3 positive cells measured after 2.5 hrs in presence of zVAD by immunoblot analysis (reference value: 4%)", "type": "toxicity, cell-based"}, "[14]": {"tested_on": "L929", "test": "Induction of apoptosis in mouse L929 cells transfected with RIP3 shRNA at 10 uM incubated for 18 hrs by Cell Titer-Glo luminescent cell viability assay", "type": "toxicity, cell-based", "conditions": "l929, 18 h"}, "[15]": {"tested_on": "MEF", "test": "Induction of apoptosis in cFLIPL-/- MEF cells transfected with cFLIPL expressing retrovirus assessed as increase in caspase 8 proteolytic activity incubated for 4 hrs", "type": "toxicity, cell-based", "conditions": "mouse"}}, "note": "Calls of active or inactive are those of the source. The rule behind the calls is not given here."}
{"smiles": "CNC(=O)c1ccc2c(c1)ncn2-c1ccc(CC(=O)OC(C)(C)C)cc1", "values": [{"measurement": "residual activity", "setting": "[1]", "value": 94.4, "unit": "%"}]}
{"smiles": "CC(C)S(=O)(=O)c1ccc2nccc(Nc3ccc4scnc4c3)c2c1", "values": [{"measurement": "Activity", "setting": "[2]", "value": "Toxic"}, {"measurement": "Activity", "setting": "[3]", "value": "Toxic"}, {"measurement": "Activity", "setting": "[4]", "value": "Non-Toxic"}, {"measurement": "inhibition", "setting": "[5]", "value": "inactive"}, {"measurement": "Activity", "setting": "[6]", "value": "Toxic"}, {"measurement": "Activity", "setting": "[7]", "value": "Non-Toxic"}, {"measurement": "Activity", "setting": "[8]", "value": "Non-Toxic"}, {"measurement": "Activity", "setting": "[9]", "value": "Non-Toxic"}, {"measurement": "inhibition", "setting": "[10]", "value": "Active"}, {"measurement": "Activity", "setting": "[11]", "value": "Toxic"}, {"measurement": "Activity", "setting": "[12]", "value": "Toxic"}, {"measurement": "Activity", "setting": "[13]", "value": 3, "unit": "%"}, {"measurement": "Activity", "setting": "[14]", "value": "Non-Toxic"}, {"measurement": "Activity", "setting": "[15]", "value": "Toxic"}]}
